Test results as given in patent publication US6589977B1, “Pyrrole derivatives and cell death inhibitors” (Sagami Chemical Research Center, priority 1999, dated 2003).

Columns and labels:
[1] = test system: Porcine ovarian granulosa cells (POGC); assay: Inhibition of SNP-induced apoptosis of porcine ovarian granulosa cells; format: cell-based; details: SNP 0.5 mM; cells observed after 18 hours
Description: (§1) Porcine ovaries were washed with PBS buffer, and Porcine ovarian granulosa cells (POGC) were collected by aspiration from follicles with a syringe. Cell fraction was recovered as a precipitate by centrifugation of the suspension. The operation of suspending the cell fraction into PBS buffer and subjecting the resulting suspension to centrifugation was repeated three times to wash the cells. The POGC obtained as a precipitate were suspended again into a culture medium (DMEM containing 10% fetal bovine serum) and cell clumps were disrupted by pipetting. The cell suspension was passed through a mesh to remove contaminating tissue fragments, and then pipetted in 24-well plates for cell culture. The cell suspension was cultured for 2 days in a CO2 incubator according to a conventional procedure (37° C., 5% CO2). Then, the medium was refreshed to remove floating cells and the cultivation was continued further 2 to 3 days until the cells reached subconfluency (0.7 to 2×10^5 cell/well). After the attaching cells were washed with serum-free medium, they were cultured in a serum-free DMEM (containing 5 μg/mL of transferrin, and 40 ng/mL of hydrocortisone, 4 mg/mL of bovine serum albumin (BSA), 100 nM androstendione) and it was possible to continue to culture cells with relatively immature differentiation. […] The cell death was also confirmed by MTT assay. Then, various concentrations of the test compounds were added to the present culture system and the cells were observed after 18 hours.

cerebellar granule cells [2] = assay: Inhibition of hydrogen peroxide-induced death of cerebellar granule cells; format: cell-based, rats; details: compound 10 μM added prior to hydrogen peroxide (10 μM); after 12 hours
Experimental: (§2) According to a known method (A Dissection and Tissue Culture Manual of the Nervous System, p. 211, 1989, Alan R, Liss, Inc.), cerebellar granule cells were isolated from the cerebellum of 7 days old rats and cultured. Namely, after conducting isolation procedures described in the above literature, the resulting cells were resuspended in DMEM containing 10% fetal bovine serum, 25 mM KCl and 2 mM glutamine, and seeded in poly-lysine coated plates. After the cells were cultured in a CO2 incubator for 48 hours according to a conventional method, cytosine-1-β-D(+)-arabinofuranoside (Ara-C) (10 μM) was added thereto, and the cell was continued to culture. The following experiments were conducted with the cells of 7 to 14 days old from the start day of the cultivation, the cells having completed neurite extension sufficiently.

Hela 3S cells = assay: Anti-cell death effect on Hela 3S cells cultured in Krebs Ringer Buffer; format: cell-based, human; details: compound 10 μM
Experimental: Hela 3S cells (culture medium: DMEM containing 10% fetal bovine serum), a cell line derived from human cervical cancer, were seeded into multi 48 well plates and cultured in a CO2 incubator according to conventional procedures. Confirming the subconfluency of a cell culture, the medium was replaced with Krebs Ringer Buffer (120 mM NaCl, […], 1 mM KH2PO4, […], 20 mM HEPES, pH 7.4, 2.57 g/L glucose, 0.05 g/L Phenol Red) and washed three times with the same buffer and cultivation continued in the same buffer. […] When the test compound 1 (10 μM) or the test compound 15 (10 μM) was added in the present culture system and cultivation continued similarly, the proportion of normal cells increased 59% or 77% respectively, and the proportion of necrosis-like cells decreased (1% or 0%, respectively), indicating the anti-cell death effects.

erythrocytes = assay: Inhibition of hydrogen peroxide-induced hemolysis of erythrocytes; format: cell-based, Human; details: compound 10 μM added prior to hydrogen peroxide (300 μM); after 24 hours
Experimental: Human blood was collected and precipitated by a centrifugation (1000 rpm, 5 min) and the precipitate containing erythrocytes was washed three times with PBS and resuspended (about 5×10^8 cells/ml) with DMEM containing 10% fetal bovine serum. Cell suspensions were dispensed into a 48-well plate to become subconfluent (about 5×10^5 cells/0.5 ml/well). When hydrogen peroxide (300 μM) was added and cultivation continued for 24 hours, more than 95% of erythrocytes underwent hemolysis and become dark and ghost-like on an observation under a light microscopy.

cerebellar granule cells [3] = assay: Inhibition of low potassium medium-induced death of cerebellar granule cells; format: cell-based, rats; details: compound 10 μM; low potassium medium (5 mM KCl); after 18 hours
Experimental: as §2
It is known that neuronal cells undergo cell death when they are cultured in a medium of low potassium (Proc. Natl. Acad. Sci. U.S.A., volume 90, p 10989, 1993). […] When the test compound 1 (10 μM), the test compound 10 (10 μM), or the test compound 15 (10 μM)coexisted, 50%, 80%, and 85% of cells were respectively alive on an observation made similarly after 18 hours.

undifferentiated POGC = assay: Inhibition of hydrogen peroxide-induced cell death of undifferentiated POGC; format: cell-based, Porcine; details: compound 0.3 μM added prior to hydrogen peroxide (100 μM); observation after 18 hour
Description: as §1, with “Then, various concentrations of the test compounds were added to the present culture system and the cells were observed after 18 hours.” left out

Compound | MEC (Minimum effective concentration for more than 95% of inhibition of cell death) [1] | further results
c1ccc(-n2cc(-c3c[nH]c4ccccc34)c(-c3c[nH]c4ccccc34)c2)cc1 [Compound 17] | 0.3 µM | 
Cc1ccc2c(c1)c(-c1cn(C)cc1-c1cn(C(=O)OC(C)(C)C)c3ccc(C)cc13)cn2C(=O)OC(C)(C)C [Compound 23] | 10 µM | 
COc1ccc2[nH]cc(-c3cn(C)cc3-c3c[nH]c4ccc(OC)cc34)c2c1 [Compound 13] | 0.3 µM | 
Cc1[nH]c2ccccc2c1-c1cn(C)cc1-c1c(C)[nH]c2ccccc12 [Compound 11] | 0.1 µM | 
Cn1cc(-c2c[nH]c3ccccc23)c(-c2cn(CCCN)c3ccccc23)c1 [Compound 4] | 0.3 µM | 
Cn1cc(-c2cn(CCCN)c3ccccc23)c(-c2cn(CCCN)c3ccccc23)c1 [Compound 5] | 0.1 µM | 
Cn1cc(-c2cn(C)c3ccccc23)c(-c2cn(C)c3ccccc23)c1 [Compound 9] | 0.3 µM | 
CN(C)CCCn1cc(-c2cn(C)cc2-c2cn(CCCN(C)C)c3ccccc23)c2ccccc21 [Compound 7] | 1 µM | 
Cc1ccc2[nH]cc(-c3cn(C)cc3-c3cn(C(=O)OC(C)(C)C)c4ccc(C)cc34)c2c1 [Compound 22] | 0.3 µM | 
Cn1cc(-c2c[nH]c3ccccc23)c(-c2c[nH]c3ccccc23)c1 [Compound 1] | 0.3 µM | cells alive (cerebellar granule cells [2]): more than 80%; proportion of necrosis-like cells (Hela 3S cells; after 5 hours (11% without compound)): 1%; proportion of normal cells (Hela 3S cells; after 5 hours (42% normal without compound)): 59%; inhibition of hemolysis (erythrocytes): almost complete inhibition of hemolysis; cells alive (cerebellar granule cells [3]): 50%
Cc1ccc2c(c1)c(-c1cn(C)cc1-c1cn(CCCN)c3ccc(C)cc13)cn2C [Compound 16] | 0.1 µM | inhibition of cell death (undifferentiated POGC): complete inhibition of cell death; survival of the cells (undifferentiated POGC): more than 95%
Cc1cccc2c(-c3cn(C)cc3-c3c[nH]c4c(C)cccc34)c[nH]c12 [Compound 10] | 0.03 µM | cells alive (cerebellar granule cells [2]): > 95%; inhibition of hemolysis (erythrocytes): almost complete inhibition of hemolysis; cells alive (cerebellar granule cells [3]): 80%
Cn1cc(-c2cn(C(=O)OC(C)(C)C)c3ccccc23)c(-c2cn(C(=O)OC(C)(C)C)c3ccccc23)c1 [Compound 3] | 10 µM | 
Cn1cc(-c2c[nH]c3ccc(F)cc23)c(-c2c[nH]c3ccc(F)cc23)c1 [Compound 12] | 1 µM | 
COc1ccc2c(c1)c(-c1cn(C)cc1-c1cn(C)c3ccc(OC)cc13)cn2C [Compound 14] | 1 µM | 
Cn1cc(-c2c[nH]c3ccccc23)c(-c2cn(C(=O)OC(C)(C)C)c3ccccc23)c1 [Compound 2] | 0.3 µM | 
Cn1cc(-c2c[nH]c3ccccc23)c(-c2cn(C)c3ccccc23)c1 [Compound 8] | 0.3 µM | 
Cc1ccc2[nH]cc(-c3cn(C)cc3-c3cn(C)c4ccc(C)cc34)c2c1 [Compound 24, 3-(1,5-dimethyl-1H-indol-3-yl)-4-(5-methyl-1H-indol-3-yl)-1-methylpyrrole] | 0.1 µM | 
c1ccc(Cn2cc(-c3c[nH]c4ccccc34)c(-c3c[nH]c4ccccc34)c2)cc1 [Compound 18] | 0.3 µM | 
CN(C)CCCn1cc(-c2cn(C)cc2-c2c[nH]c3ccccc23)c2ccccc21 [Compound 6] | 0.3 µM | 
